Measured values as given in patent US20140235444A1, “SYNERGISTIC SUPRESSION OF GRASS SEEDHEAD PRODUCTION FROM APPLICATIONS OF AMINOCYCLOPYRACHLOR AND METSULFURON” (Dow AgroSciences LLC, priority 2013, published 2014).

Test system: X fescue in a Kentucky blue grass mix
Assay: Field trial, prevention or suppression of grass seedhead production, postemergence foliar application
Type: in vivo
Details: 12 days after application, scale 0-100% vs untreated control
Method: Field trials were conducted with applications made to established pastures having X fescue in a Kentucky blue grass mix. The target plants were treated with postemergence foliar applications when they were approximately 6-10 inches tall. All treatments were applied using a randomized complete block trial design, with four replications per treatment.
Treatments consisted of aminocyclopyrachlor in acid form and metsulfuron-methyl, each in water and applied alone or in combination. Spray solutions were prepared using an appropriate amount of dilution to form a 1 liter (L) aqueous spray solution with active ingredients in single and two-way combinations. Formulated compounds were applied to the plant material with a backpack sprayer equipped with 8003 flat fan nozzles calibrated to deliver 20 gallons per acre (gal/acre) or 187 liters per hectare (L/ha) at a spray height of 15 inches (38.1 centimeters (cm)) above the grass.
The treated plots and control plots were rated blind at various intervals after application. […]
Colby's equation was used to determine the seedhead-suppressant effects expected from the mixtures, as described above. The results were measured at 12 days after the first application of the compositions. […]

| Compound | Mean % seedhead suppression (Metsulfuron-Methyl alone, 13 g ae/ha) [%] | Mean % seedhead suppression (Aminocyclopyrachlor alone, 70 g ae/ha) [%] |
| --- | --- | --- |
| Metsulfuron-Methyl | 80.0 |  |
| Nc1nc(C2CC2)nc(C(=O)O)c1Cl [Aminocyclopyrachlor, 6-amino-5-chloro-2-cyclopropylpyrimidine-4-carboxylic acid] |  | 5.0 |
